# Test results as given in US20080132554A1, “CRYSTAL FORM OF 2-(3-FLUORO-4-HYDROXYPHENYL)-7-VINYL-1,3-BENZOXAZOL-5-OL” (WYETH, priority 2006, published 2008).
# Experiment: Conversion of the crystal form when suspended and stirred in solvent
# Format: physicochemical
# Conditions: room temperature, seven days
# From the text: The anhydrate crystal form (Form D) can be converted to other crystal forms under suitable conditions.
compound,measurement,setting,value
"C=Cc1cc(O)cc2nc(-c3ccc(O)c(F)c3)oc12 [Form D, 2-(3-fluoro-4-hydroxyphenyl)-7-vinyl-1,3-benzoxazol-5-ol]",crystal form conversion after suspension and stirring,in acetone,another anhydrate crystal form is obtained
same,crystal form conversion after suspension and stirring,in ethanol,another anhydrate crystal form is obtained
same,crystal form conversion after suspension and stirring,in methanol,another anhydrate crystal form is obtained
same,crystal form conversion after suspension and stirring,in water,most of the anhydrate crystal form is converted to a hydrate crystal form
